Holding throughout (type): cell-based
Series [1] has as its target CAR (NR1I3) Phe161Ala mutant (Homo sapiens, UniProt Q14994, F161A). Nature of the series: Activation of human CAR Phe161Ala mutant expressed in human C3A cells at 10 uM after 24 hrs by GAL4-dependent luciferase reporter gene assay relative to control. Conditions: C3A cells expressing human CAR Phe161Ala mutant, read-out: FC. In general terms: Reporter assays use an easily measured gene product as a stand-in for the process of interest.

Series [2] addresses CAR (NR1I3) Asn165Ala mutant (Homo sapiens, UniProt Q14994, N165A). Briefly: Activation of human CAR Asn165Ala mutant expressed in human C3A cells at 10 uM after 24 hrs by GAL4-dependent luciferase reporter gene assay relative to control. The conditions noted are these: C3A cells expressing human CAR Asn165Ala mutant, read-out: FC.
The target in series [3] is T1, CAR (NR1I3) ligand-binding domain, wild type (Homo sapiens, UniProt Q14994).
T1 sequence (Q14994 whole entry): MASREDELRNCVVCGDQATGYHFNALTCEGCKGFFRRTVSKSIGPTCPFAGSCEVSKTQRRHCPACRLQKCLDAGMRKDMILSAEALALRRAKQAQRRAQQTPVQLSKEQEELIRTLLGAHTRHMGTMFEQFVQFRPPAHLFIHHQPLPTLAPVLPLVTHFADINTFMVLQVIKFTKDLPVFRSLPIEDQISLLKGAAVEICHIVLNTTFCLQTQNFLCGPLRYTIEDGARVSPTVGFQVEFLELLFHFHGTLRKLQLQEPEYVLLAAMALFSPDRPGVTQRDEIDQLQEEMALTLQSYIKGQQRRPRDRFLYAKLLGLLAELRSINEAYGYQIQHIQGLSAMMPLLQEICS
Briefly: Activation of human CAR-LBD expressed in human C3A cells at 10 uM after 24 hrs by GAL4-dependent luciferase reporter gene assay relative to control. Conditions: C3A cells expressing human CAR-LBD, read-out: FC.

The target of series [4] is CAR (NR1I3) His203Ala mutant (Homo sapiens, UniProt Q14994, H203A). Nature of the series: Activation of human CAR His203Ala mutant expressed in human C3A cells at 10 uM after 24 hrs by GAL4-dependent luciferase reporter gene assay relative to control. The conditions noted are these: C3A cells expressing human CAR His203Ala mutant, read-out: FC.
Series [5] concerns the target CAR (NR1I3) Ile164Ala mutant (Homo sapiens, UniProt Q14994, I164A). Briefly: Activation of human CAR Ile164Ala mutant expressed in human C3A cells at 10 uM after 24 hrs by GAL4-dependent luciferase reporter gene assay relative to control. Conditions: C3A cells expressing human CAR Ile164Ala mutant, read-out: FC.

The structures appear in SMILES notation.

CAR (NR1I3) Asn165Ala mutant, sequence (Q14994 whole entry N165A, the tested form may be a part): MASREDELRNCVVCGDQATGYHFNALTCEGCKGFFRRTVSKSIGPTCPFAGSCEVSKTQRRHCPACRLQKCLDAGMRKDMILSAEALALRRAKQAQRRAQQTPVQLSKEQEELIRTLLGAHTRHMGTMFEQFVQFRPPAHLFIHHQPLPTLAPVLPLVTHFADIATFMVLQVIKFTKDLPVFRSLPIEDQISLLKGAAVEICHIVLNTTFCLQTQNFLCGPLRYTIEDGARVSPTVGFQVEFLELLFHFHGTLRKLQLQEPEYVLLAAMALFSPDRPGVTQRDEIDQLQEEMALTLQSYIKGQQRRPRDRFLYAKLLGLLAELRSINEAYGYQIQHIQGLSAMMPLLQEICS
CAR (NR1I3) His203Ala mutant, sequence (Q14994 whole entry H203A, the tested form may be a part): as the sequence (Q14994 whole entry N165A, the tested form may be a part) above, with A165N, H203A counted along it
CAR (NR1I3) Phe161Ala mutant, sequence (Q14994 whole entry F161A, the tested form may be a part): as the sequence (Q14994 whole entry N165A, the tested form may be a part) above, with F161A, A165N counted along it
CAR (NR1I3) Ile164Ala mutant, sequence (Q14994 whole entry I164A, the tested form may be a part): as the sequence (Q14994 whole entry N165A, the tested form may be a part) above, with I164A, A165N counted along it

`CCOc1ccccc1N1CCN(Cc2ccc(C)s2)CC1`: the fold induction at 24 h, 10 µM was 1.01 in series [1]; 2.2 in series [2]; 2.7 in series [3]; 1.9 in series [4]; 1.49 in series [5].
`CCc1cc(Br)ccc1S(=O)(=O)NCc1ccccc1`: the fold induction at 24 h, 10 µM in series [1] amounted to 3.36; in series [2] it was 1.19; in series [3], 2.51; in series [4], 1.92; in series [5], 2.89.
For the molecule `CCC(=O)NCC(=O)N1CCCN1C(=O)Cc1c(C)[nH]c2ccccc12`, the fold induction at 24 h, 10 µM came out at 0.96 in series [1]; 1.23 in series [2]; 2.39 in series [3]; 2.06 in series [4]; 1.08 in series [5].
Consider `CCN(c1ccccc1)S(=O)(=O)c1ccc(C(C)(C)CC)cc1`, for which the fold induction at 24 h, 10 µM in series [1] stood at 1.56; in series [2] it was 1.22; in series [3] it was 6.35; in series [4], 4.22; in series [5], 1.42.
For `CSCCN1C(=O)CS[C@@H]1c1ccc(Br)s1`, in that order: 0.97, 1.87, 2.97, 1.28 and 1.3.
On to `CN(C)c1ccc(NS(=O)(=O)c2ccc(Br)cc2)cc1`, for which the fold induction at 24 h, 10 µM in series [1] was 1.12; in series [2], 0.99; in series [3], 2.03; in series [4], 2.26; in series [5], 2.33.
On to `CCc1cccc(NC(=O)N(CC)[C@H](C)Cc2ccc(OC)cc2)c1`, for which the fold induction at 24 h, 10 µM in series [1] worked out at 0.92; in series [2], 1.72; in series [3], 1.86; in series [4], 1.88; in series [5], 1.32.
As to `CCCCCNC(=O)Nc1c(C)cccc1C(C)(C)C`, the fold induction at 24 h, 10 µM was found to be 0.97 in series [1]; 1.76 in series [2]; 2.6 in series [3]; 4.17 in series [4]; 1.24 in series [5].
With `COc1ccc(OC)c(CN2C(=O)CS[C@@H]2c2ccc(F)c(Br)c2)c1`, the fold induction at 24 h, 10 µM in series [1] came out at 1.17; in series [2], 1.13; in series [3] it was 3.87; in series [4], 2.83; in series [5], 1.87.
With `CCc1ccc(S(=O)(=O)Nc2ccccc2C(C)(C)C)cc1`, the fold induction at 24 h, 10 µM in series [1] is 0.94; in series [2], 1; in series [3] it was 7.92; in series [4], 2.62; in series [5], 1.55.
In the case of `O=S(=O)(NCCSCc1ccccc1)c1ccc(Cl)cc1`, the fold induction at 24 h, 10 µM in series [1] was determined as 0.92; in series [2] it was 1.17; in series [3], 1.63; in series [4], 3.21; in series [5] it was 2.26.
As for `CCc1cc(Br)ccc1S(=O)(=O)Nc1ccccc1[C@@H](C)CC`, the fold induction at 24 h, 10 µM in series [1] was 3.62; in series [2], 2.75; in series [3], 4.47; in series [4], 10.1; in series [5] it was 4.57.
For `CSc1ccccc1NS(=O)(=O)c1cc(Cl)sc1Cl`, the fold induction at 24 h, 10 µM is 0.94 in series [1]; 5.18 in series [2]; 3.68 in series [3]; 1.84 in series [4]; 1.66 in series [5].
For `CCOc1ccccc1CCCNC(=O)Nc1c(CC)cccc1CC`, in that order: 1.52, 0.81, 4.88, 1.03 and 1.48.
Turning to `O=S(=O)(NCC(c1ccccc1)c1ccccc1)c1cccs1`, the fold induction at 24 h, 10 µM in series [1] came to 0.95; in series [2], 0.53; in series [3] it was 3.28; in series [4], 1.86; in series [5] it was 1.42.
As for `Cc1cccc(NC(=O)N2CCN(c3cccc(C)c3)[C@H](C)C2)c1`, the fold induction at 24 h, 10 µM was found to be 1.38 in series [1]; 1.08 in series [2]; 1.45 in series [3]; 1.43 in series [4]; 0.84 in series [5].
Turning to `CCCCN(c1ccccc1)S(=O)(=O)c1cccc2ccccc12`, the fold induction at 24 h, 10 µM in series [1] is 4.4; in series [2], 2.07; in series [3], 4.09; in series [4], 5.44; in series [5] it was 6.61.
Take `CCN(CC)c1ccc(NS(=O)(=O)c2ccc(Cl)cc2)c(C)c1`: the fold induction at 24 h, 10 µM in series [1] came out at 1.08; in series [2], 1.1; in series [3] it was 5.5; in series [4], 3.29; in series [5], 4.14.
Take `O=S(=O)(NCc1csc2ccccc12)c1cccs1`: the fold induction at 24 h, 10 µM in series [1] amounted to 1.57; in series [2] it was 1.7; in series [3], 1.76; in series [4] it was 1.43; in series [5] it was 1.54.
Consider `CCCc1ccc(S(=O)(=O)N(Cc2ccccc2)c2ccc(OC)cc2)cc1`, for which the fold induction at 24 h, 10 µM was 1.22 in series [1]; 1.82 in series [2]; 3.8 in series [3]; 3.68 in series [4]; 1.56 in series [5].
As to `C[C@@H]1Cc2ccccc2N1S(=O)(=O)c1cccc2nsnc12`, the fold induction at 24 h, 10 µM worked out at 1.3 in series [1]; 1.05 in series [2]; 5.22 in series [3]; 1.52 in series [4]; 6.66 in series [5].
On to `Cn1ccnc1CN1CCCN(C(=O)Nc2ccc(F)c(F)c2F)CC1`, for which the fold induction at 24 h, 10 µM in series [1] was determined as 1.24; in series [2], 1.98; in series [3], 2.23; in series [4], 1.49; in series [5], 1.36.
Consider `O=C(NCC1CCCCC1)N[C@H]1C[C@@H]1c1ccccc1`, for which the fold induction at 24 h, 10 µM in series [1] stood at 1.21; in series [2], 1.14; in series [3] it was 2.95; in series [4] it was 2.16; in series [5], 2.86.
For `Cc1cccc(NC(=O)N(Cc2ccccc2)Cc2ccccc2)c1`, in that order: 1.53, 3.64, 4.17, 3.48 and 3.74.

The record behind these values is ChEMBL document CHEMBL1140201, “Insights into ligand-elicited activation of human constitutive androstane receptor based on novel agonists and three-dimensional quantitative structure-activity relationship” (J Med Chem, 2008).
